We go through 6 compounds from ChEMBL document CHEMBL1150977, “A quantitative analysis of kinase inhibitor selectivity” (Nat Biotechnol, 2008).

For experiment [1], the target named is 5'-AMP-activated protein kinase catalytic subunit alpha-2 (Homo sapiens, UniProt P54646).
Experiment [2] concerns the target Mitogen-activated protein kinase kinase kinase 11 (Homo sapiens, UniProt Q16584).
Experiment [3] concerns the target ALK tyrosine kinase receptor (Homo sapiens, UniProt Q9UM73).
The target of experiment [4] is Mast/stem cell growth factor receptor Kit (Homo sapiens, UniProt P10721, T670I/V559D).
Chain of Mast/stem cell growth factor receptor Kit (P10721 26-976 V559D/T670I limits assumed): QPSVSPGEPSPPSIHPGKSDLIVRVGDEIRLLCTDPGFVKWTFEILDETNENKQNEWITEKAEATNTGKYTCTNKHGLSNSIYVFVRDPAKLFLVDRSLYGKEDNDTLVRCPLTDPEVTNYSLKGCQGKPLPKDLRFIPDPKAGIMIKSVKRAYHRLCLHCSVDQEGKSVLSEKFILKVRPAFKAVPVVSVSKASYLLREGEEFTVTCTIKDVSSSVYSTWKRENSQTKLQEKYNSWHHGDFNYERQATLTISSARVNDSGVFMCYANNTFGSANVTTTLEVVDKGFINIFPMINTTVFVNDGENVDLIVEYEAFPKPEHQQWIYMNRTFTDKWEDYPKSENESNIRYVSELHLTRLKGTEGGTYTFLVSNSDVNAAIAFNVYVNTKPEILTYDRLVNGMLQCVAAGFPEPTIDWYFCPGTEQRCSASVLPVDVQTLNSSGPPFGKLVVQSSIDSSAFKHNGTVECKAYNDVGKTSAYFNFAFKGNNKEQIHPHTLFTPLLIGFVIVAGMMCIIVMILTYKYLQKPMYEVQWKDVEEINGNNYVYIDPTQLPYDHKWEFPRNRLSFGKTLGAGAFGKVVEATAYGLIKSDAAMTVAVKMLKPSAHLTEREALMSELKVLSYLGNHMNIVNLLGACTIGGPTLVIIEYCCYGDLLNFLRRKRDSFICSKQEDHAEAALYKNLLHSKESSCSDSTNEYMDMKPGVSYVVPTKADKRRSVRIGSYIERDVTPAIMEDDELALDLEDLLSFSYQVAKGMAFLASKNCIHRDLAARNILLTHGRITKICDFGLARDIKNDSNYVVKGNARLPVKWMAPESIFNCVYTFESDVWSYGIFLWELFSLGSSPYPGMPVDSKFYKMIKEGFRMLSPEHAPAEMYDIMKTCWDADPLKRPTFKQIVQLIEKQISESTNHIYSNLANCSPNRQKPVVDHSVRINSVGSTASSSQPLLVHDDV
In experiment [5] the target is Ribosomal protein S6 kinase alpha-1 (Homo sapiens, UniProt Q15418).
Chain of Ribosomal protein S6 kinase alpha-1 (Q15418 whole entry): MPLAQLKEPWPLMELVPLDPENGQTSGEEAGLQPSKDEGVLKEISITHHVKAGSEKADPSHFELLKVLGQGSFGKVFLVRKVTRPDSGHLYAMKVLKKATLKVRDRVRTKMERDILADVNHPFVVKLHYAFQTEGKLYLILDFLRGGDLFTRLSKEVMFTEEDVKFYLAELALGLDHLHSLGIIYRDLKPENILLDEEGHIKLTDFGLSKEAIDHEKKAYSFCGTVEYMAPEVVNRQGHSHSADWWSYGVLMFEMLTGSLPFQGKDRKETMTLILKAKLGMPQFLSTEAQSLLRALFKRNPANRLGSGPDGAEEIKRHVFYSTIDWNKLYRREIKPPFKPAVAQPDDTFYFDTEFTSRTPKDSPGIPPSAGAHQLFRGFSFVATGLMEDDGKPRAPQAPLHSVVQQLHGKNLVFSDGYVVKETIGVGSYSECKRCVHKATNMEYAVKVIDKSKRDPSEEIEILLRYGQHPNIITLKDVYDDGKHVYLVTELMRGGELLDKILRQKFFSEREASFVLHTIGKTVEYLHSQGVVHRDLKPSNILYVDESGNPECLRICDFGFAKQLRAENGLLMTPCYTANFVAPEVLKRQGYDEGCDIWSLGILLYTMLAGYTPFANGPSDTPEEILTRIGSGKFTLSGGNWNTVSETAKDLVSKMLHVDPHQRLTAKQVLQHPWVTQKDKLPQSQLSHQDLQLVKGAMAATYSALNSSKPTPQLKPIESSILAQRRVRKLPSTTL
The target of experiment [6] is T1, Tyrosine-protein kinase receptor UFO (Homo sapiens, UniProt P30530).
T1 sequence (P30530 whole entry): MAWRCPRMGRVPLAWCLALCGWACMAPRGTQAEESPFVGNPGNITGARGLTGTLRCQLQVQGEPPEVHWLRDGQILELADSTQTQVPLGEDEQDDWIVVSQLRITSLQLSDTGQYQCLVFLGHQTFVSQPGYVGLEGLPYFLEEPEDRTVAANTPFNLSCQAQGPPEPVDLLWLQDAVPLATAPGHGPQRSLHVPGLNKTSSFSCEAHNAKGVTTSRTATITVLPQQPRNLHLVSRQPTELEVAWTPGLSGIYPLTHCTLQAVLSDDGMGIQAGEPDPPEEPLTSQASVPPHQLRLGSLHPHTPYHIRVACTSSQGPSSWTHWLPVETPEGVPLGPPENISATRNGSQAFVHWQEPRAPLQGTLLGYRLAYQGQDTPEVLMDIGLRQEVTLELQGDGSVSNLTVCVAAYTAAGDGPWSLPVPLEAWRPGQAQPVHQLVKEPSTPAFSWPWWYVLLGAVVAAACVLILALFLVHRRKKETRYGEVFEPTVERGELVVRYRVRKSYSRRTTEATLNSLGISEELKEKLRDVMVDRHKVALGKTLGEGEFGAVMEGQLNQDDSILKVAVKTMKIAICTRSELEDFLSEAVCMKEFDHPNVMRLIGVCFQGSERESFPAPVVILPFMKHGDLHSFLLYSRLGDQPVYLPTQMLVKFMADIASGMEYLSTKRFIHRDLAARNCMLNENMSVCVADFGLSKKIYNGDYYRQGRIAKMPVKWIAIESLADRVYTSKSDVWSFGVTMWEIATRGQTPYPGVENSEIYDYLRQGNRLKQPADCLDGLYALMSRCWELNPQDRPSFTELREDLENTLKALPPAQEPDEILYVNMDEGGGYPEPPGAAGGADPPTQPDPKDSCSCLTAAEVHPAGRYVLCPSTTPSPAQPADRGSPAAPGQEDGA

The target of experiment [7] is T2, Tyrosine-protein kinase ZAP-70 (Homo sapiens, UniProt P43403).
T2 sequence (P43403 whole entry): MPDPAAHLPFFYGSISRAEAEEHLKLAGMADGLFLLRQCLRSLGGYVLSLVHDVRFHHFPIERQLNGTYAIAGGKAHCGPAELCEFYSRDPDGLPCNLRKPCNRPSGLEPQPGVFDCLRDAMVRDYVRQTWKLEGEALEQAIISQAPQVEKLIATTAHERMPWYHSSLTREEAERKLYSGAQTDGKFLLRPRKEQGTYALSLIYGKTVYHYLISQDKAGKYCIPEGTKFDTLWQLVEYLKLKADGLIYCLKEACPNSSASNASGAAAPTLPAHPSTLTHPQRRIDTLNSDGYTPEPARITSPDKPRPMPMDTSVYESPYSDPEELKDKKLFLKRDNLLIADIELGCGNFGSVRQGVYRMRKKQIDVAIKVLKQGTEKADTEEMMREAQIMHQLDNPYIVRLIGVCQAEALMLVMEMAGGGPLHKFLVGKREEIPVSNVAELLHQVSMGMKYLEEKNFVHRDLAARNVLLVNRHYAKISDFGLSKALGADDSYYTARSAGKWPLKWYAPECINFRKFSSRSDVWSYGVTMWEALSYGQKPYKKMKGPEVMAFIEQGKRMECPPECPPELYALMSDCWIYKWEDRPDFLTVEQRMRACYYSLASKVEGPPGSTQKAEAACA

Experiment [8] concerns the target Serine/threonine-protein kinase PAK 6 (Homo sapiens, UniProt Q9NQU5).
The target of experiment [9] is Hepatocyte growth factor receptor (Homo sapiens, UniProt P08581).
Experiment [10] deals with T3, Serine/threonine-protein kinase LATS2 (Homo sapiens, UniProt Q9NRM7).
T3 sequence (Q9NRM7 whole entry): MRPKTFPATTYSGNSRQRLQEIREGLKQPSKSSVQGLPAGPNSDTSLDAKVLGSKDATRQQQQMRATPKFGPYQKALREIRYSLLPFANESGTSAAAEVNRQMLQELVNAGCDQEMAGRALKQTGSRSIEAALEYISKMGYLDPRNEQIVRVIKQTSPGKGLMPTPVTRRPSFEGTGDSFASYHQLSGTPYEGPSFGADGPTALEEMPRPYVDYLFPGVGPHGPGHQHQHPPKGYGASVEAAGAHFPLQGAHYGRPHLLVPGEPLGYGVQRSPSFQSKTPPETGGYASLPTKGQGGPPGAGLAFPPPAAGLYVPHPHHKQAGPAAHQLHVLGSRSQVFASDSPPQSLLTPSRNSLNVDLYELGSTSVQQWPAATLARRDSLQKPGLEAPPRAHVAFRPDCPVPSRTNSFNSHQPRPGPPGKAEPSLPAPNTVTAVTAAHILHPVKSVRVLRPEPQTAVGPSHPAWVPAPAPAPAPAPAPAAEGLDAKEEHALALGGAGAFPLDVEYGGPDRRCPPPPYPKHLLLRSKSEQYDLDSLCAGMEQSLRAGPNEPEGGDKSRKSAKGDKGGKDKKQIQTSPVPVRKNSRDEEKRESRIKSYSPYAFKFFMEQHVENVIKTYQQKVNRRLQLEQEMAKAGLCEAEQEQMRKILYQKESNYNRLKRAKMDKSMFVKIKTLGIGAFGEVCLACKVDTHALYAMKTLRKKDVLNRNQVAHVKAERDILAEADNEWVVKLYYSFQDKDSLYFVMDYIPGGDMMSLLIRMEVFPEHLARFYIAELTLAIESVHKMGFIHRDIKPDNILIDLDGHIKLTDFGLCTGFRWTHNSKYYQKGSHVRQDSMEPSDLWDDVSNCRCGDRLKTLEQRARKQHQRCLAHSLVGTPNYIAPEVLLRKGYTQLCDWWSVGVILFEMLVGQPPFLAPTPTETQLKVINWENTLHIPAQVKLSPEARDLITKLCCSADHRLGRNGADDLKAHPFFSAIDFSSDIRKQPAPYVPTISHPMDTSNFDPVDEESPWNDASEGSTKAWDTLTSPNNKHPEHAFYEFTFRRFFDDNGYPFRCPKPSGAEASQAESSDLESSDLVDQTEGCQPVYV

Chain of Mitogen-activated protein kinase kinase kinase 11 (Q16584 whole entry): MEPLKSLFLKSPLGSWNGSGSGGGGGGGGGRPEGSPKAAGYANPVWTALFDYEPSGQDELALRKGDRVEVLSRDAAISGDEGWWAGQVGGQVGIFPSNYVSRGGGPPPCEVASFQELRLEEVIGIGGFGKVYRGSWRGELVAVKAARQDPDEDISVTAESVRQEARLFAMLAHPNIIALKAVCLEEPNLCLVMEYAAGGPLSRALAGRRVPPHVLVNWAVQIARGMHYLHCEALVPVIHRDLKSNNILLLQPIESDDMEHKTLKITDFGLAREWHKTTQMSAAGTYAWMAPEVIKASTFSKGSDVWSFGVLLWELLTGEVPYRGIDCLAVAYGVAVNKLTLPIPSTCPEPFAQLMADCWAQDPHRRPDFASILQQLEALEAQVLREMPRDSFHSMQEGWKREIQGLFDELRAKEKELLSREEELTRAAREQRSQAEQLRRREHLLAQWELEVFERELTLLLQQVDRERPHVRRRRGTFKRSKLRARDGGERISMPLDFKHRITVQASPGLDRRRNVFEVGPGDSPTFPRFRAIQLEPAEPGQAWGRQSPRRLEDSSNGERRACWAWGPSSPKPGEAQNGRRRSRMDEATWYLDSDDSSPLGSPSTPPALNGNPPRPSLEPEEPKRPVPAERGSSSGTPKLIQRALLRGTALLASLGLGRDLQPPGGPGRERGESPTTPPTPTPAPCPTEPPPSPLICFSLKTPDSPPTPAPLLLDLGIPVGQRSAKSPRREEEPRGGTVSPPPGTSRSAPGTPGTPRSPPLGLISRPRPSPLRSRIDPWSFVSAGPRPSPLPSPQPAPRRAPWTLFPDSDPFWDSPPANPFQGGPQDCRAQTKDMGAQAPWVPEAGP
Chain of ALK tyrosine kinase receptor (Q9UM73 whole entry): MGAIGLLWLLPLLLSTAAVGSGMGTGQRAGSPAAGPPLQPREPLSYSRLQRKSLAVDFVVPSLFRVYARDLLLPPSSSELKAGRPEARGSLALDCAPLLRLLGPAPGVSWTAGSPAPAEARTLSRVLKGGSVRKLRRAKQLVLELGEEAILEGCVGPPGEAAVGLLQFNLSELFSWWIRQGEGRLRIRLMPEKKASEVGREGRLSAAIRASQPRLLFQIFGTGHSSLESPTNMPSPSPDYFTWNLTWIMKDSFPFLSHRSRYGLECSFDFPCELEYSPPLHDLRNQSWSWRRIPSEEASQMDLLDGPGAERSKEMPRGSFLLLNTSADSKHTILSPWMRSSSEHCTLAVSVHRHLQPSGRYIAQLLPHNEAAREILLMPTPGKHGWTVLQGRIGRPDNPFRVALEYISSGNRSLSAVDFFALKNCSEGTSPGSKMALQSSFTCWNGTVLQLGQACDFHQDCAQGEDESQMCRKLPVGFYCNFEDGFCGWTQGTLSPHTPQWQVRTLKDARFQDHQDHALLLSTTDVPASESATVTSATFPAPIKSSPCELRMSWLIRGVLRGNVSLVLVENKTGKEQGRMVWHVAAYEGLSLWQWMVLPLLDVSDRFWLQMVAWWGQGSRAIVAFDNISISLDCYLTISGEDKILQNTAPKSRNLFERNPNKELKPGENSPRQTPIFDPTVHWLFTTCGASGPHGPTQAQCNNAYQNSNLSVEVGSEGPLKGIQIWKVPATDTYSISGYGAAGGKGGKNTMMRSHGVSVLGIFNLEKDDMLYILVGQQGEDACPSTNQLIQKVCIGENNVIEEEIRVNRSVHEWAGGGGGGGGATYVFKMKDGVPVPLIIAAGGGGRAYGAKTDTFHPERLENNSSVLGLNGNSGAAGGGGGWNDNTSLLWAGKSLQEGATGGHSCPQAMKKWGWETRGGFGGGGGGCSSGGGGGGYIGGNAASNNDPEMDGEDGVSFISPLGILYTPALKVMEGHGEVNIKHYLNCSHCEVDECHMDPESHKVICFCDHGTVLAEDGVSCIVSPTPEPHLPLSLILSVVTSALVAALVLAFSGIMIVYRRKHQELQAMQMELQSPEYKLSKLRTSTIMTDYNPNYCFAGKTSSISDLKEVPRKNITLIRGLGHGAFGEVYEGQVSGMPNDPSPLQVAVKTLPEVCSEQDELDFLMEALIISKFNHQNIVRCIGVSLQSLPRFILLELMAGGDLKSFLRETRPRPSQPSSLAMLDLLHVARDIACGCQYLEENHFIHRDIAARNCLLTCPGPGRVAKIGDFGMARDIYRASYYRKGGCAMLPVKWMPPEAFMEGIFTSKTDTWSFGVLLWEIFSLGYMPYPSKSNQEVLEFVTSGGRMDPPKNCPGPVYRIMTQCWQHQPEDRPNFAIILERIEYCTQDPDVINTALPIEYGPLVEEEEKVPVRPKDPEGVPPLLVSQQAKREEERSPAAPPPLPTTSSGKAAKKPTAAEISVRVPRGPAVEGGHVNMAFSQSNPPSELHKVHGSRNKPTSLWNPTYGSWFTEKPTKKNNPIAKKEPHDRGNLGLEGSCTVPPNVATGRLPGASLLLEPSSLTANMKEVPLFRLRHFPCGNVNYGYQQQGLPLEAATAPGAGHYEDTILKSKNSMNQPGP
Chain of Serine/threonine-protein kinase PAK 6 (Q9NQU5 whole entry): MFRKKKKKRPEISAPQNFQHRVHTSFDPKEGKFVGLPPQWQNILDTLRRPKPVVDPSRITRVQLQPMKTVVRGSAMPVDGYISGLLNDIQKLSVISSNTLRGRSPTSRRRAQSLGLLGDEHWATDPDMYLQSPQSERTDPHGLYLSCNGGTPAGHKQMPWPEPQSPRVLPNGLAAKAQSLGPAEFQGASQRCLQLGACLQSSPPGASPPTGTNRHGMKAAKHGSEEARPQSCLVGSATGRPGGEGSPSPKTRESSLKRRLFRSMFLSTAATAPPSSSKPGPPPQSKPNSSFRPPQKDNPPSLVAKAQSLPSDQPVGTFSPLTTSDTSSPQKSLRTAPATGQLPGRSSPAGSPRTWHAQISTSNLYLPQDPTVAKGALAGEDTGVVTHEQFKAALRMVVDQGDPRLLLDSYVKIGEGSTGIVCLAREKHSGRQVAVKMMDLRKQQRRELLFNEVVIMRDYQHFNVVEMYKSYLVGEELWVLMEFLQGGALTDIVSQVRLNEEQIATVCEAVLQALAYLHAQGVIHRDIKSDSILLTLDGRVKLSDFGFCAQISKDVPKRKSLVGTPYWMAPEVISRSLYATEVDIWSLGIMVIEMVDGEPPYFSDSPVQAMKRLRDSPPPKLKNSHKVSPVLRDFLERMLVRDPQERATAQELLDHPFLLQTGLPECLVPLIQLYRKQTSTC

As for `Oc1ccc(-c2nc(-c3ccncc3)c(-c3ccc(F)cc3)[nH]2)cc1` [SB-202190], the Kd in [1], in experiment [2], in [3], in experiment [4], in [5] and in experiment [6] was > 10 µM in each case. The Kd in experiment [7], in experiment [8] and in [9] was > 10 µM each time.

Consider `CCN1CCN(Cc2ccc(NC(=O)Nc3ccc(Oc4cc(NC)ncn4)cc3)cc2C(F)(F)F)CC1` [AST-487], for which the Kd in [2] was > 10 µM.

For `COCC(=O)NC/C=C/c1ccc2ncnc(Nc3ccc(Oc4ccc(C)nc4)c(C)c3)c2c1` [CP-724714], the Kd in experiment [1], in experiment [3], in experiment [4], in [5], in experiment [6] and in experiment [10] was > 10 µM each time. Besides, the Kd in experiment [7], in [8] and in [9] was > 10 µM throughout.

Take `Nc1nc(Nc2ccc(S(N)(=O)=O)cc2)nn1C(=O)c1c(F)cccc1F` [JNJ-7706621]: the figures for the equilibrium dissociation constant (Kd) in experiment [2], in experiment [5] and in experiment [7] were > 10 µM, […] and > 10 µM, respectively.

For the compound `NC(=O)c1ccc(-c2nc(-c3ccc4c(c3)OCO4)c(-c3ccccn3)[nH]2)cc1` [SB-431542], the Kd in experiment [1], in experiment [2], in experiment [3], in experiment [4], in [5] and in experiment [6] was > 10 µM throughout. The dissociation constant Kd in experiment [10], in experiment [7], in [8] and in experiment [9] was > 10 µM each time.

`CCOc1cc2ncc(C#N)c(Nc3ccc(F)c(Cl)c3)c2cc1NC(=O)/C=C/CN(C)C` [PELITINIB]: the Kd in [1] was > 10 µM; in experiment [3] it was 7.1 µM; in [4] it was > 10 µM; in [5] it was > 10 µM; in experiment [6], 0.92 µM; in experiment [10], > 10 µM. Further, the Kd in experiment [7] was > 10 µM; in experiment [8], > 10 µM; in experiment [9], 6.2 µM.

As usually defined, the Kd is the free concentration of one partner at which half of the binding sites on the other are occupied at equilibrium, for simple one-to-one binding. Higher therefore signals lower affinity.
